According to the NIST ThermoML archive (doi:10.1021/je900691n):

Assay: xn = mol fraction of the nth substance listed
Details: Liquid, Pycnometric method

COC(=O)OC [dimethyl carbonate] + O=C=O
mass density [kg/m3]
Details | 332.85 K | 337.45 K
8220 kPa, x1 = 0.0242 | – | 212
8340 kPa, x1 = 0.0242 | – | 217
8440 kPa, x1 = 0.0242 | – | 222
8530 kPa, x1 = 0.0242 | – | 226
8640 kPa, x1 = 0.0242 | – | 231
8730 kPa, x1 = 0.0242 | – | 236
8820 kPa, x1 = 0.0242 | – | 242
8920 kPa, x1 = 0.0242 | – | 247
9030 kPa, x1 = 0.0242 | – | 253
9130 kPa, x1 = 0.0242 | – | 259
9240 kPa, x1 = 0.0242 | – | 266
9350 kPa, x1 = 0.0242 | – | 272
9460 kPa, x1 = 0.0242 | – | 279
9570 kPa, x1 = 0.0242 | – | 287
9690 kPa, x1 = 0.0242 | – | 295
9760 kPa, x1 = 0.1484 | – | 790
9810 kPa, x1 = 0.0242 | – | 304
9820 kPa, x1 = 0.118 | 773 | –
9910 kPa, x1 = 0.0242 | 353 | –
9920 kPa, x1 = 0.1484 | 826 | –
9930 kPa, x1 = 0.0242 | – | 311
9960 kPa, x1 = 0.086 | 682 | –
10010 kPa, x1 = 0.0242 | 362 | –
10030 kPa, x1 = 0.086 | 686 | –
10040 kPa, x1 = 0.118 | 780 | –
10060 kPa, x1 = 0.1484 | – | 795
10090 kPa, x1 = 0.0481 | 484 | –
10110 kPa, x1 = 0.0242 | 371 | –
10180 kPa, x1 = 0.118 | – | 737
10200 kPa, x1 = 0.0242 | 381 | –
10200 kPa, x1 = 0.086 | 695 | –
10250 kPa, x1 = 0.0481 | 506 | –
10290 kPa, x1 = 0.1484 | 832 | –
10300 kPa, x1 = 0.0242 | 391 | –
10350 kPa, x1 = 0.0481 | 517 | –
10350 kPa, x1 = 0.118 | 788 | 743
10380 kPa, x1 = 0.0242 | 399 | –
10380 kPa, x1 = 0.086 | 704 | –
10420 kPa, x1 = 0.0481 | 525 | –
10450 kPa, x1 = 0.0481 | – | 450
10450 kPa, x1 = 0.086 | – | 631
10480 kPa, x1 = 0.086 | – | 634
10490 kPa, x1 = 0.0242 | 410 | –
10520 kPa, x1 = 0.0481 | 538 | –
10530 kPa, x1 = 0.086 | 711 | –
10530 kPa, x1 = 0.1484 | – | 804
10550 kPa, x1 = 0.086 | – | 640
10580 kPa, x1 = 0.0242 | 417 | –
10620 kPa, x1 = 0.118 | – | 751
10630 kPa, x1 = 0.086 | – | 644
10640 kPa, x1 = 0.0481 | 550 | –
10670 kPa, x1 = 0.0481 | – | 470
10720 kPa, x1 = 0.1484 | 839 | –
10740 kPa, x1 = 0.0481 | 560 | –
10740 kPa, x1 = 0.118 | 796 | –
10780 kPa, x1 = 0.0481 | – | 481
10800 kPa, x1 = 0.086 | – | 654
10820 kPa, x1 = 0.1484 | – | 809
10860 kPa, x1 = 0.086 | 724 | –
10890 kPa, x1 = 0.0481 | 574 | 492
10940 kPa, x1 = 0.118 | – | 760
11010 kPa, x1 = 0.0481 | – | 504
11060 kPa, x1 = 0.0481 | 588 | –
11080 kPa, x1 = 0.086 | – | 669
11160 kPa, x1 = 0.0481 | – | 517
11200 kPa, x1 = 0.118 | 805 | –
11230 kPa, x1 = 0.1484 | – | 816
11250 kPa, x1 = 0.1484 | 846 | –
11260 kPa, x1 = 0.0481 | 603 | –
11270 kPa, x1 = 0.086 | 738 | –
11290 kPa, x1 = 0.118 | – | 769
11310 kPa, x1 = 0.0481 | – | 530
11380 kPa, x1 = 0.086 | – | 684
11480 kPa, x1 = 0.0481 | – | 543
11500 kPa, x1 = 0.0481 | 619 | –
11650 kPa, x1 = 0.0481 | – | 558
11700 kPa, x1 = 0.118 | – | 779
11720 kPa, x1 = 0.1484 | – | 823
11730 kPa, x1 = 0.1484 | 851 | –
11740 kPa, x1 = 0.118 | 815 | –
11750 kPa, x1 = 0.086 | 751 | –
11760 kPa, x1 = 0.0481 | 636 | –
11780 kPa, x1 = 0.086 | – | 700
11850 kPa, x1 = 0.0481 | – | 573
11990 kPa, x1 = 0.0481 | 650 | –
12100 kPa, x1 = 0.0481 | – | 589
12160 kPa, x1 = 0.118 | 822 | –
12190 kPa, x1 = 0.118 | – | 789
12240 kPa, x1 = 0.1484 | – | 830
12260 kPa, x1 = 0.1484 | 858 | –
12270 kPa, x1 = 0.086 | 765 | 716
12280 kPa, x1 = 0.0481 | 663 | –
12360 kPa, x1 = 0.0481 | – | 607
12630 kPa, x1 = 0.0481 | 678 | –
12660 kPa, x1 = 0.118 | – | 798
12700 kPa, x1 = 0.118 | 830 | –
12740 kPa, x1 = 0.1484 | – | 838
12750 kPa, x1 = 0.086 | 775 | –
12750 kPa, x1 = 0.1484 | 863 | –
12800 kPa, x1 = 0.086 | – | 732
13170 kPa, x1 = 0.086 | – | 742
13190 kPa, x1 = 0.118 | 837 | –
13220 kPa, x1 = 0.118 | – | 807
13230 kPa, x1 = 0.086 | 784 | –
13240 kPa, x1 = 0.1484 | – | 843
13270 kPa, x1 = 0.1484 | 869 | –
13640 kPa, x1 = 0.118 | – | 814
13700 kPa, x1 = 0.118 | 843 | –
13730 kPa, x1 = 0.086 | – | 755
13730 kPa, x1 = 0.1484 | – | 849
13760 kPa, x1 = 0.086 | 794 | –
13800 kPa, x1 = 0.1484 | 874 | –
14170 kPa, x1 = 0.118 | – | 821
14220 kPa, x1 = 0.086 | – | 766
14230 kPa, x1 = 0.118 | 850 | –
14270 kPa, x1 = 0.1484 | – | 855
14290 kPa, x1 = 0.086 | 803 | –
14520 kPa, x1 = 0.1484 | 881 | –
14710 kPa, x1 = 0.086 | – | 775
14720 kPa, x1 = 0.086 | 810 | –
14730 kPa, x1 = 0.118 | – | 829
14760 kPa, x1 = 0.118 | 856 | –
14780 kPa, x1 = 0.1484 | – | 861
15020 kPa, x1 = 0.1484 | 885 | –
15150 kPa, x1 = 0.086 | – | 783
15280 kPa, x1 = 0.118 | – | 836
15290 kPa, x1 = 0.118 | 861 | –
15330 kPa, x1 = 0.086 | 819 | –
15350 kPa, x1 = 0.1484 | – | 866
15460 kPa, x1 = 0.1484 | 889 | –
15740 kPa, x1 = 0.086 | – | 792
15740 kPa, x1 = 0.118 | 866 | –
15760 kPa, x1 = 0.086 | 825 | –
15770 kPa, x1 = 0.118 | – | 842
15800 kPa, x1 = 0.1484 | – | 870
15940 kPa, x1 = 0.1484 | 893 | –
16200 kPa, x1 = 0.086 | 831 | –
16250 kPa, x1 = 0.086 | – | 801
16370 kPa, x1 = 0.118 | 872 | –
16400 kPa, x1 = 0.118 | – | 849
16600 kPa, x1 = 0.1484 | – | 881
16670 kPa, x1 = 0.1484 | 899 | –
